{"source": "patent US20240034730A1", "about": "“PYRAZOLO DERIVATIVES AS HUMAN DIHYDROOROTATE DEHYDROGENASE (HDHODH) INHIBITORS FOR USE AS ANTIVIRALS” (DRUG DISCOVERY AND CLINIC S.R.L., priority 2020, published 2024)", "key": {"[1]": {"test": "log D (pH 7.4), shake-flask n-octanol/PBS", "settings": "n-octanol/PBS pH 7.4, shake flask", "method": "(§1) Lipophilicity. The shake flask method was chosen to determinate logD7.4.\n(§2) The partition coefficients between n-octanol and PBS at pH 7.4 (log D^7.4) were obtained using the shake-flask technique at room temperature. In the shake-flask experiments, 50 mM of phosphate buffered saline pH 7.4 was used as the aqueous phase. The organic (n-octanol) and aqueous phases were mutually saturated by shaking for 4 h. The compounds were solubilized in the buffered aqueous phase at the highest concentration compatible with solubility and appropriate amounts of n-octanol were added. The two phases were shaken for about 20 min, by which time the partitioning equilibrium of solutes had been reached, and then centrifuged (10000 rpm, 10 min)."}, "recombinant hDHODH": {"target": "recombinant hDHODH (Homo sapiens (Human), UniProt Q02127)", "sequence (Q02127 whole entry)": "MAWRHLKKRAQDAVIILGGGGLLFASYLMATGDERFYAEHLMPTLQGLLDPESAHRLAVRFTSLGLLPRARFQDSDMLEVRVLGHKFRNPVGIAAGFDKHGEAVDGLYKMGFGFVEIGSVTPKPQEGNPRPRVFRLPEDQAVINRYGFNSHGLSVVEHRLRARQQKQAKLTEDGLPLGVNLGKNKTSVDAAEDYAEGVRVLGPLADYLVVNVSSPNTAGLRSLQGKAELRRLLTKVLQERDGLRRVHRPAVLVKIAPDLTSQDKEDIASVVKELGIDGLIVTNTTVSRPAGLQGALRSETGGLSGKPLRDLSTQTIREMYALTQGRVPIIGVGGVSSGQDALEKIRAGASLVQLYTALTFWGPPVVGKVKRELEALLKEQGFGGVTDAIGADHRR", "test": "hDHODH inhibition assay (DCIP reduction)", "format": "biochemical", "settings": "recombinant GST-hDHODH; means ± SE of three independent experiments; read-out: hDHODH IC50 ± SE"}, "hCoV-229E": {"tested_on": "hCoV-229E", "test": "Anti-hCoV-229E activity in MRC5 fibroblasts (CPE, CellTiter-Glo)", "format": "cell-based"}, "hCoV-OC43 [2]": {"tested_on": "hCoV-OC43", "test": "Anti-hCoV-OC43 activity in HCT-8 cells, concentration-dependent"}, "[3]": {"settings": "literature value (refs 15, 16); read-out: CC50 from literature (SARS-CoV-2); cited from earlier work"}, "HSV-2": {"tested_on": "HSV-2", "test": "Plaque reduction assay (PRA), HSV-2 in Vero cells", "format": "cell-based, Herpes simplex virus 2", "settings": "Human alphaherpesvirus 2, Vero, read-out: EC50 HSV-2"}, "HSV-1": {"tested_on": "HSV-1", "test": "Plaque reduction assay (PRA), HSV-1 in Vero cells", "format": "cell-based, Herpes simplex virus 1", "settings": "Human alphaherpesvirus 1, Vero"}, "[4]": {"tested_on": "Influenza A virus (A/Puerto Rico/8/34)", "test": "microbe, parasite or virus in culture", "format": "cell-based", "settings": "PRA, MDCK cells"}, "RSV [5]": {"tested_on": "RSV", "test": "Plaque reduction assay (PRA), RSV in HEp-2 cells", "format": "cell-based", "settings": "human respiratory syncytial virus, HEp-2, read-out: EC50 RSV"}, "[6]": {"test": "Cytotoxicity on MDCK cells (Cell Titer Glo)", "format": "cell-based, Canine", "settings": "dog, read-out: CC50 (Influenza A row)"}, "in vitro [7]": {"test": "in vitro", "settings": "African green monkey"}, "in vitro [8]": {"test": "in vitro", "format": "cell-based", "settings": "human"}, "hCoV-OC43 [9]": {"tested_on": "hCoV-OC43", "test": "Focus forming reduction assay (FFRA), hCoV-OC43 in HCT-8 cells, single concentration", "format": "cell-based", "settings": "Betacoronavirus 1, OC43, HCT-8, 72 h, HCT8 cells, 72 h p.i., vs DMSO control, read-out: % Decrease of hCoV-OC43 replication in presence of inhibitor 0.1 μM"}, "[10]": {"settings": "pH 7.4", "method": "as §1, §2"}, "[11]": {"test": "Solubility assay at pH 7.4 in PBS", "format": "physicochemical", "settings": "pH 7.4", "method": "Solubility assay at pH 7.4. […] The samples were shaken in an orbital shaker at 25° C. for 24 h. These suspensions were filtered through a PTFE 0.45 μm filter (VWR), and the solutions were chromatographically analyzed using a Perkin Elmer Ultra High Performance Liquid Chromatography (UHPLC) instrument, equipped with a reverse-phase (RP) C18 Phenomenex column (2.1×100 mm, 1.7 μm particle size). Gradient elution: the ratio of eluents A and B (0.1% trifluoroacetic acid in water and 0.1% trifluoroacetic acid in acetonitrile, respectively) changed linearly from 60% A-40% B to 0% A-100% B in 12 minutes, followed by 5 minutes in isocratic elution at 100% of eluent B and then 4 minutes in equilibration elution to reset the starting conditions. The flow rate was 0.5 mL/min. Standard injection volumes were either 2 or 4 μl for poorly soluble compounds. The detection system was a Perkin Elmer diode-array-detector. The wavelengths that were monitored for each compound were defined according to the compound's own absorption spectrum. Solubility, expressed as μM concentration of the saturated solution, was calculated via interpolation with external calibration curves that were obtained with solutions of each compound in acetonitrile."}, "SARS-CoV-2": {"tested_on": "SARS-CoV-2", "settings": "literature value (refs 15, 16); read-out: EC50 SARS-CoV-2 from literature; cited from earlier work"}, "RSV [12]": {"tested_on": "RSV", "settings": "literature value (ref 17); read-out: EC50 RSV from literature; cited from earlier work"}}, "note": "Like-named read-outs stand apart in the source and are kept apart here."}
{"smiles": "O=C(Nc1ccc2c(c1)ncn2-c1ccccc1)c1c(O)nn2ccccc12", "note": "[Compound 21, 2-Hydroxy-N-(1-phenyl-1H-benzo[d]imidazol-5-yl)pyrazolo[1,5-a]pyridine-3-carboxamide]", "values": [{"measurement": "Log D7.4 ± SD", "setting": "[1]", "value": "2.55 ± 0.04"}, {"measurement": "melting point", "value": "133.6 to 135.9", "unit": "°C"}, {"measurement": "IC50", "setting": "recombinant hDHODH", "value": "> 10000", "unit": "nM"}]}
{"smiles": "CCC(CC)COC(=O)[C@H](C)N[P@](=O)(OC[C@H]1O[C@@](C#N)(c2ccc3c(N)ncnn23)[C@H](O)[C@@H]1O)Oc1ccccc1", "note": "[Remdesivir]", "values": [{"measurement": "EC50", "setting": "hCoV-229E; Human coronavirus 229E, MRC5 fibroblasts", "value": "34.8 ± 5", "unit": "nM"}, {"measurement": "EC50", "setting": "hCoV-OC43 [2]; read-out: EC50 hCoV-OC43", "value": "147 ± 34", "unit": "nM"}, {"measurement": "CC50", "setting": "[3]", "value": "> 100000", "unit": "nM"}]}
{"smiles": "CC(F)(F)COc1cccc(-c2c(F)c(F)c(NC(=O)c3c(O)nn4ccccc34)c(F)c2F)c1", "note": "[Compound 40, N-(3′-(2,2-difluoropropoxy)-2,3,5,6-tetrafluoro-[1,1′-biphenyl]-4-yl)-2-hydroxypyrazolo[1,5-a]pyridine-3-carboxamide]", "values": [{"measurement": "melting point", "value": "229.6 to 231.7", "unit": "°C"}, {"measurement": "IC50", "setting": "recombinant hDHODH", "value": "1.48 ± 0.2", "unit": "nM"}]}
{"smiles": "O=C(Nc1ccc2c(c1)nnn2-c1ccccc1)c1c(O)nn2ccccc12", "note": "[Compound 22, 2-Hydroxy-N-(1-phenyl-1H-benzo[d][1,2,3]triazol-5-yl)pyrazolo[1,5-a]pyridine-3-carboxamide]", "values": [{"measurement": "Log D7.4 ± SD", "setting": "[1]", "value": "1.59 ± 0.03"}, {"measurement": "melting point", "value": "133.6 to 135.9", "unit": "°C"}, {"measurement": "IC50", "setting": "recombinant hDHODH", "value": "7200 ± 1600", "unit": "nM"}]}
{"smiles": "Cc1c(-c2ccc(-c3ccccc3F)cc2)nc2ccc(F)cc2c1C(=O)O", "note": "[Brequinar]", "values": [{"measurement": "EC50", "setting": "HSV-2", "value": 1770, "unit": "nM"}, {"measurement": "EC50", "setting": "HSV-1; read-out: EC50 HSV-1", "value": 530, "unit": "nM"}, {"measurement": "EC50", "setting": "hCoV-229E; Human coronavirus 229E, MRC5, MRC5 fibroblasts", "value": "42.7 ± 3", "unit": "nM"}, {"measurement": "EC50", "setting": "hCoV-229E; MRC5 fibroblasts", "value": 22, "unit": "nM"}, {"measurement": "EC50", "setting": "[4]", "value": 760, "unit": "nM"}, {"measurement": "EC50", "setting": "RSV [5]", "value": 15, "unit": "nM"}, {"measurement": "CC50 at 72 h", "setting": "[6]", "value": 5000, "unit": "nM"}, {"measurement": "Log D7.4 ± SD", "setting": "[1]", "value": "1.83 ± 0.02"}, {"measurement": "CC50 at 3 days", "setting": "in vitro [7]", "value": 100000, "unit": "nM"}, {"measurement": "CC50 at 72 h", "setting": "in vitro [8]", "value": 168000, "unit": "nM"}, {"measurement": "EC50", "setting": "hCoV-OC43 [2]; read-out: EC50 hCoV-OC43", "value": 42.7, "unit": "nM"}, {"measurement": "EC50", "setting": "hCoV-OC43 [2]; read-out: EC50 hCoV-OC43, listed as brequinar", "value": "22 ± 3", "unit": "nM"}]}
{"smiles": "O=C(Nc1c(F)c(F)c(-c2ccccc2)c(F)c1F)c1c(O)nn2c1CCCC2", "note": "[Compound 5, 2-Hydroxy-N-(2,3,5,6-tetrafluoro-[1,1′-biphenyl]-4-yl)-4,5,6,7-tetrahydropyrazolo[1,5-a]pyridine-3-carboxamide]", "values": [{"measurement": "inhibition at 0.1 µM", "setting": "hCoV-OC43 [9]", "value": 31.3, "unit": "%"}, {"measurement": "Log D7.4 ± SD", "setting": "[10]", "value": "2.36 ± 0.02"}, {"measurement": "IC50", "setting": "recombinant hDHODH", "value": "5.8 ± 0.4", "unit": "nM"}, {"measurement": "Solubility in PBS", "setting": "[11]", "value": "<LOD"}]}
{"smiles": "Nc1nc2c(ncn2COCCO)c(=O)[nH]1", "note": "[ACV]", "values": [{"measurement": "EC50", "setting": "HSV-1; read-out: EC50 anti-HSV of reference drug", "value": 180, "unit": "nM"}]}
{"smiles": "O=C(Nc1ccc2c(ccn2-c2ccccc2)c1)c1c(O)nn2ccccc12", "note": "[Compound 20, 2-Hydroxy-N-(1-phenyl-1H-indol-5-yl)pyrazolo[1,5-a]pyridine-3-carboxamide]", "values": [{"measurement": "Log D7.4 ± SD", "setting": "[1]", "value": "2.89 ± 0.05"}, {"measurement": "melting point", "value": "133.6 to 135.9", "unit": "°C"}, {"measurement": "IC50", "setting": "recombinant hDHODH", "value": "2760 ± 386", "unit": "nM"}]}
{"smiles": "O=c1nc(NO)ccn1[C@@H]1O[C@H](CO)[C@@H](O)[C@H]1O", "note": "[EIDD-1931]", "values": [{"measurement": "EC50", "setting": "SARS-CoV-2", "value": 300, "unit": "nM"}, {"measurement": "EC50", "setting": "RSV [12]", "value": 690, "unit": "nM"}, {"measurement": "CC50", "setting": "[3]", "value": "> 10000", "unit": "nM"}]}
{"smiles": "CCCOc1cccc(-c2c(F)c(F)c(NC(=O)c3c(O)nn4ccccc34)c(F)c2F)c1", "note": "[Compound 17, 2-Hydroxy-N-(2,3,5,6-tetrafluoro-3′-propoxy-[1,1′-biphenyl]-4-yl) pyrazolo[1,5-a]pyridine-3-carboxamide]", "values": [{"measurement": "EC50", "setting": "HSV-2", "value": 110, "unit": "nM"}, {"measurement": "EC50", "setting": "HSV-1; read-out: EC50 HSV-1", "value": 90, "unit": "nM"}, {"measurement": "Log D7.4 ± SD", "setting": "[10]", "value": "3.28 ± 0.12"}, {"measurement": "CC50 at 3 days", "setting": "in vitro [7]", "value": 117000, "unit": "nM"}]}
